Data reported in paper PMC9571063 (Molecules, 2022).

Columns and labels:
Test in all cases: KINOMEscan
Assay type in all cases: binding
Details in all cases: read-out: Percent Control
[1] = target: T1, ABL1(F317L)-phosphorylated (Homo sapiens, UniProt P00519, F317L)
T1 construct: purchased Eurofins DiscoverX KINOMEscan (scanMAX 468)

[2] = target: T2, ABL1(Q252H)-nonphosphorylated (Homo sapiens, UniProt P00519, Q252H)
T2 construct: purchased Eurofins DiscoverX KINOMEscan (scanMAX 468)

[3] = target: T3, AMPK-alpha2 (Homo sapiens, UniProt P54646)
T3 construct: purchased Eurofins DiscoverX KINOMEscan (scanMAX 468)

[4] = target: T4, AURKB (Homo sapiens, UniProt Q96GD4)
T4 construct: purchased Eurofins DiscoverX KINOMEscan (scanMAX 468)
T4 sequence (Q96GD4 whole entry): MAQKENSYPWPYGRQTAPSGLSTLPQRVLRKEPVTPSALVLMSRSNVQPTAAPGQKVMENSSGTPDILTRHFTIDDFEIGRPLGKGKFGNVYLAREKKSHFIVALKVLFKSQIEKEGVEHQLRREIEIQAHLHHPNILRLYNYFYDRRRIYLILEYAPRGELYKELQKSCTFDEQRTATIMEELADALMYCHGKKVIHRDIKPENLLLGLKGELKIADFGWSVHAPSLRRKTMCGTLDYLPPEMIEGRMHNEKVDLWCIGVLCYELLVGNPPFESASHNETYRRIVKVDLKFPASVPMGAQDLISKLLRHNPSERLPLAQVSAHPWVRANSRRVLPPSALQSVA

[5] = target: T5, BMPR1B (Homo sapiens, UniProt O00238)
T5 construct: purchased Eurofins DiscoverX KINOMEscan (scanMAX 468)

[6] = target: T6, BRAF (Homo sapiens, UniProt P15056)
T6 construct: purchased Eurofins DiscoverX KINOMEscan (scanMAX 468)

[7] = target: T7, CAMK1D (Homo sapiens, UniProt Q8IU85)
T7 construct: purchased Eurofins DiscoverX KINOMEscan (scanMAX 468)

[8] = target: T8, CAMK1G (Homo sapiens, UniProt Q96NX5)
T8 construct: purchased Eurofins DiscoverX KINOMEscan (scanMAX 468)
T8 sequence (Q96NX5 whole entry): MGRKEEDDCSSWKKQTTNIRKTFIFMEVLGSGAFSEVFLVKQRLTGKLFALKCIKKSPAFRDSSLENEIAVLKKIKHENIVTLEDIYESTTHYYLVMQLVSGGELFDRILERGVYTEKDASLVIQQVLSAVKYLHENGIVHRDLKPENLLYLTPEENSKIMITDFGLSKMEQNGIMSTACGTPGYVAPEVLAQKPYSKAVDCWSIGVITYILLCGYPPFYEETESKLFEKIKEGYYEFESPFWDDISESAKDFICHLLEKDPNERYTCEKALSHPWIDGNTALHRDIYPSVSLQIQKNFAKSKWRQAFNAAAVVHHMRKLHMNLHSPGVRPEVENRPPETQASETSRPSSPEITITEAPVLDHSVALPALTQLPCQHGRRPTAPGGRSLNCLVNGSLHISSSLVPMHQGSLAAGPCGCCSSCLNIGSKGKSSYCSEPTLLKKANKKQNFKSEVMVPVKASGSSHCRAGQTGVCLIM

[9] = target: T9, CDKL5 (Homo sapiens, UniProt O76039)
T9 construct: purchased Eurofins DiscoverX KINOMEscan (scanMAX 468)

[10] = target: T10, CTK (Homo sapiens, UniProt P42679)
T10 construct: purchased Eurofins DiscoverX KINOMEscan (scanMAX 468)

[11] = target: T11, DCAMKL3 (Homo sapiens, UniProt Q9C098)
T11 construct: purchased Eurofins DiscoverX KINOMEscan (scanMAX 468)

[12] = target: T12, EGFR(L747-S752del, P753S) (Homo sapiens, UniProt P00533, DEL747-752/P753S)
T12 construct: purchased Eurofins DiscoverX KINOMEscan (scanMAX 468)

[13] = target: T13, EGFR(L858R) (Homo sapiens, UniProt P00533, L858R)
T13 construct: purchased Eurofins DiscoverX KINOMEscan (scanMAX 468)

[14] = target: T14, EPHB6 (Homo sapiens, UniProt O15197)
T14 construct: purchased Eurofins DiscoverX KINOMEscan (scanMAX 468)

[15] = target: T15, GRK4 (Homo sapiens, UniProt P32298)
T15 construct: purchased Eurofins DiscoverX KINOMEscan (scanMAX 468)

[16] = target: T16, HIPK2 (Homo sapiens, UniProt Q9H2X6)
T16 construct: purchased Eurofins DiscoverX KINOMEscan (scanMAX 468)

[17] = target: T17, HIPK3 (Homo sapiens, UniProt Q9H422)
T17 construct: purchased Eurofins DiscoverX KINOMEscan (scanMAX 468)
T17 sequence (Q9H422 whole entry): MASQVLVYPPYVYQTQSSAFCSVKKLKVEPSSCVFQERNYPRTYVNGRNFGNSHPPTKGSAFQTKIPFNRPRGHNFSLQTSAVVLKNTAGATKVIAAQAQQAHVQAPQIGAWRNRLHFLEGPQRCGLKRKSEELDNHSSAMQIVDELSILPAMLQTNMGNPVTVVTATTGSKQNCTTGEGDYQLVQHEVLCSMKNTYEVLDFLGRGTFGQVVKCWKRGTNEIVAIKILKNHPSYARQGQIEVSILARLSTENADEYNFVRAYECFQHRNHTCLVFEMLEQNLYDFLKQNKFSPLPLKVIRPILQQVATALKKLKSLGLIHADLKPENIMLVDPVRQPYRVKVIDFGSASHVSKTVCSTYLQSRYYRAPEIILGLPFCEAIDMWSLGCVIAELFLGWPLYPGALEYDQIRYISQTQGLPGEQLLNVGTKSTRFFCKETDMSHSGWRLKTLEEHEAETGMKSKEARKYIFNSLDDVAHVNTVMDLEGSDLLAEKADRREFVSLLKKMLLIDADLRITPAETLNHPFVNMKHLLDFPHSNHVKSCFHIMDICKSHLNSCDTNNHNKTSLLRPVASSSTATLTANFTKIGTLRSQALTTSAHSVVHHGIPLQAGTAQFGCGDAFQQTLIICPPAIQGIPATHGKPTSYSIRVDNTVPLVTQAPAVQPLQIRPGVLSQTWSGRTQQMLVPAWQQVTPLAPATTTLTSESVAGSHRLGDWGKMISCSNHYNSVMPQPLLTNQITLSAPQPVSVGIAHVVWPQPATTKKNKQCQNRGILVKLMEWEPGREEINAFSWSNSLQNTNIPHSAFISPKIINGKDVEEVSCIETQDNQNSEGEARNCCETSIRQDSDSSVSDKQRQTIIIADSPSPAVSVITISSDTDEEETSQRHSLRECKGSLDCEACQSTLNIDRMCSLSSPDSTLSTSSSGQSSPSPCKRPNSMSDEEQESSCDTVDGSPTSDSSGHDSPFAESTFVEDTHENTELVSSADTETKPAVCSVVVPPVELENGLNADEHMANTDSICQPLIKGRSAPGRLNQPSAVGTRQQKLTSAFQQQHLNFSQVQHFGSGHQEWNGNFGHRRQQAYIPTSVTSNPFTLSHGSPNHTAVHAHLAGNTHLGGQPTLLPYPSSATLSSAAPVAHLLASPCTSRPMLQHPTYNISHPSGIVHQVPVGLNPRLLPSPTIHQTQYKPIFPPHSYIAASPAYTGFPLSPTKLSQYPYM

[18] = target: T18, LATS1 (Homo sapiens, UniProt O95835)
T18 construct: purchased Eurofins DiscoverX KINOMEscan (scanMAX 468)

[19] = target: T19, LATS2 (Homo sapiens, UniProt Q9NRM7)
T19 construct: purchased Eurofins DiscoverX KINOMEscan (scanMAX 468)

[20] = target: T20, LCK (Homo sapiens, UniProt P06239)
T20 construct: purchased Eurofins DiscoverX KINOMEscan (scanMAX 468)
T20 sequence (P06239 whole entry): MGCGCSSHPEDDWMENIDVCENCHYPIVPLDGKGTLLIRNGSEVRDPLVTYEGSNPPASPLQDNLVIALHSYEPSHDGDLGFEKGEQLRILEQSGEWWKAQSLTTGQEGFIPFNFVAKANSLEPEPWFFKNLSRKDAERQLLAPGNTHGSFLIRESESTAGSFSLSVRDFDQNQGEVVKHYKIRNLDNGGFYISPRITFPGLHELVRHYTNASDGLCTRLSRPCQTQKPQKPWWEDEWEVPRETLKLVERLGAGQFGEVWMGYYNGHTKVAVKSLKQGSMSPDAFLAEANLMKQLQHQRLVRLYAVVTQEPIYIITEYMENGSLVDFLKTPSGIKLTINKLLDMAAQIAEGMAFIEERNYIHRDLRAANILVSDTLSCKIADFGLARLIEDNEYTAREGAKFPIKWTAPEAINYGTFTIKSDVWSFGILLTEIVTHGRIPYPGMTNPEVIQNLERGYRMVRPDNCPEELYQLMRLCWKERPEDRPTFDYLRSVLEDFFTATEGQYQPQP

[21] = target: T21, LOK (Homo sapiens, UniProt O94804)
T21 construct: purchased Eurofins DiscoverX KINOMEscan (scanMAX 468)

[22] = target: T22, MAK (Homo sapiens, UniProt P20794)
T22 construct: purchased Eurofins DiscoverX KINOMEscan (scanMAX 468)

[23] = target: T23, MAP4K5 (Homo sapiens, UniProt Q9Y4K4)
T23 construct: purchased Eurofins DiscoverX KINOMEscan (scanMAX 468)
T23 sequence (Q9Y4K4 whole entry): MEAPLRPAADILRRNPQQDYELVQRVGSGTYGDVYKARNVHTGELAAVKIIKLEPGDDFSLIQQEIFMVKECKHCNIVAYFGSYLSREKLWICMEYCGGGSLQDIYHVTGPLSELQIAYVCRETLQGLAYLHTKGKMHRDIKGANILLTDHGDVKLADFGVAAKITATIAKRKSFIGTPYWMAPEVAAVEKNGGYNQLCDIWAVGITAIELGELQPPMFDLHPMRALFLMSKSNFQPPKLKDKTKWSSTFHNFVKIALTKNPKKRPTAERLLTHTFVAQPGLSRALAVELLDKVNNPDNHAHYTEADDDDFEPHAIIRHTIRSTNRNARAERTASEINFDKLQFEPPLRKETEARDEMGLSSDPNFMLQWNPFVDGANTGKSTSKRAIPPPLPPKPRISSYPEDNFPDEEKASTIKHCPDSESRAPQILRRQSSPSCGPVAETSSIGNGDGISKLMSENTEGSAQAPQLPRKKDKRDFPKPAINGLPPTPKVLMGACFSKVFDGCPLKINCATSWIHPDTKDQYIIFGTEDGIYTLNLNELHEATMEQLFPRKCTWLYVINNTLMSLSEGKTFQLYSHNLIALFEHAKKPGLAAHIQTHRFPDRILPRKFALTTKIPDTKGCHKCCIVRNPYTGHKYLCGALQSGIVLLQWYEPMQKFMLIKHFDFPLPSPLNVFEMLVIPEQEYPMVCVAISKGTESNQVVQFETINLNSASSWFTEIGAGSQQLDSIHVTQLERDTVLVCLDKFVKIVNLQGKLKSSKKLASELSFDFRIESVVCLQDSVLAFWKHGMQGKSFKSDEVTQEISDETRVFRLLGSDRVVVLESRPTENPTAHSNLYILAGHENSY

[24] = target: T24, MYLK4 (Homo sapiens, UniProt Q86YV6)
T24 construct: purchased Eurofins DiscoverX KINOMEscan (scanMAX 468)
T24 sequence (Q86YV6 whole entry): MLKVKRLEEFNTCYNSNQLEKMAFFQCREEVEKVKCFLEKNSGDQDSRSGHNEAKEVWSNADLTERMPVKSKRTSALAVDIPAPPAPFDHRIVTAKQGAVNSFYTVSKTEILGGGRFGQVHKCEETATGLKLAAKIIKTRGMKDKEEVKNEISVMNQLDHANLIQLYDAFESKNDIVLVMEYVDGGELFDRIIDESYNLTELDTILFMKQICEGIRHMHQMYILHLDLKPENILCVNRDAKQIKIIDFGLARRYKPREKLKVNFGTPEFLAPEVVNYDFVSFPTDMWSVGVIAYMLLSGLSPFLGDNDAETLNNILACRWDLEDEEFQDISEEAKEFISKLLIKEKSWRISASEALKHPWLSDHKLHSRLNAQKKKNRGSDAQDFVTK

[25] = target: T25, NIM1 (Homo sapiens, UniProt Q8IY84)
T25 construct: purchased Eurofins DiscoverX KINOMEscan (scanMAX 468)

[26] = target: T26, PCTK2 (Homo sapiens, UniProt Q00537)
T26 construct: purchased Eurofins DiscoverX KINOMEscan (scanMAX 468)

[27] = target: T27, PIKFYVE (Homo sapiens, UniProt Q9Y2I7)
T27 construct: purchased Eurofins DiscoverX KINOMEscan (scanMAX 468)

[28] = target: T28, PIM1 (Homo sapiens, UniProt P11309)
T28 construct: purchased Eurofins DiscoverX KINOMEscan (scanMAX 468)
T28 sequence (P11309 whole entry): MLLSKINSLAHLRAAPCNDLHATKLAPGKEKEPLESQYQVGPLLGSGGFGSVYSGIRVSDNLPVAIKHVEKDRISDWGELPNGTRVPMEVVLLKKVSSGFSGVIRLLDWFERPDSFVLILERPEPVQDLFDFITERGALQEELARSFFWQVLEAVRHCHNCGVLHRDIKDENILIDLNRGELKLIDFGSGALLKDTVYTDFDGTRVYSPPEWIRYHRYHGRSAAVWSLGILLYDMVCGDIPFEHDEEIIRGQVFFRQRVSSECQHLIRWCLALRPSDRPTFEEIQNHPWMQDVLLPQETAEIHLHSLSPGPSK

[29] = target: T29, PIP5K2C (Homo sapiens, UniProt Q8TBX8)
T29 construct: purchased Eurofins DiscoverX KINOMEscan (scanMAX 468)

[30] = target: T30, PRKCQ (Homo sapiens, UniProt Q04759)
T30 construct: purchased Eurofins DiscoverX KINOMEscan (scanMAX 468)
T30 sequence (Q04759 whole entry): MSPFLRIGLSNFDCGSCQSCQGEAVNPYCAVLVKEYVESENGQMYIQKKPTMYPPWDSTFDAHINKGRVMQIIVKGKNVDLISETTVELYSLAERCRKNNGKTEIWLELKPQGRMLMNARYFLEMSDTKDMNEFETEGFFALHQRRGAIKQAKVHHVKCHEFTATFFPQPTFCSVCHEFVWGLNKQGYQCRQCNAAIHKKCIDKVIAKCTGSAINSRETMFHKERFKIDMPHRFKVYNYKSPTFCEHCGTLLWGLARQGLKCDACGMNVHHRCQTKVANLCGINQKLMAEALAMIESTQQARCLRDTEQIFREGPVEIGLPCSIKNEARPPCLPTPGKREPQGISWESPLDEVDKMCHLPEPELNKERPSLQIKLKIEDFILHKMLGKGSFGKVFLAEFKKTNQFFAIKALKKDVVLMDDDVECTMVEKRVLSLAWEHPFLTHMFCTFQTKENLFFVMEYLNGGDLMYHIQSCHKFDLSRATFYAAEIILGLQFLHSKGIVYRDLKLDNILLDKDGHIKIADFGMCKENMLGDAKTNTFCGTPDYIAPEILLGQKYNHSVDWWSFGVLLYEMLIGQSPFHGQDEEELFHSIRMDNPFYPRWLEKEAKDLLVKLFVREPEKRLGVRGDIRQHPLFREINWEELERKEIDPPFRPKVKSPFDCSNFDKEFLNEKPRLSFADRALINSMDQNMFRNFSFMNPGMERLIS

[31] = target: T31, PYK2 (Homo sapiens, UniProt Q14289)
T31 construct: purchased Eurofins DiscoverX KINOMEscan (scanMAX 468)

[32] = target: T32, ROCK2 (Homo sapiens, UniProt O75116)
T32 construct: purchased Eurofins DiscoverX KINOMEscan (scanMAX 468)

[33] = target: T33, RSK3(Kin.Dom.1-N-terminal) (Homo sapiens, UniProt Q15349)
T33 construct: RSK3(Kin.Dom.1-N-terminal); purchased Eurofins DiscoverX KINOMEscan (scanMAX 468)

[34] = target: T34, SGK (Homo sapiens, UniProt O00141)
T34 construct: purchased Eurofins DiscoverX KINOMEscan (scanMAX 468)

[35] = target: T35, SLK (Homo sapiens, UniProt Q9H2G2)
T35 construct: purchased Eurofins DiscoverX KINOMEscan (scanMAX 468)

[36] = target: T36, SNARK (Homo sapiens, UniProt Q9H093)
T36 construct: purchased Eurofins DiscoverX KINOMEscan (scanMAX 468)

[37] = target: T37, TAOK1 (Homo sapiens, UniProt Q7L7X3)
T37 construct: purchased Eurofins DiscoverX KINOMEscan (scanMAX 468)

[38] = target: T38, TGFBR1 (Homo sapiens, UniProt P36897)
T38 construct: purchased Eurofins DiscoverX KINOMEscan (scanMAX 468)

[39] = target: T39, TRKA (Homo sapiens, UniProt P04629)
T39 construct: purchased Eurofins DiscoverX KINOMEscan (scanMAX 468)

[40] = target: T40, WNK1 (Homo sapiens, UniProt Q9H4A3)
T40 construct: purchased Eurofins DiscoverX KINOMEscan (scanMAX 468)

[41] = target: T41, WNK2 (Homo sapiens, UniProt Q9Y3S1)
T41 construct: purchased Eurofins DiscoverX KINOMEscan (scanMAX 468)

[42] = target: T42, YANK2 (Homo sapiens, UniProt Q9NY57)
T42 construct: purchased Eurofins (KINOMEscan, DiscoverX)

[43] = target: T43, YSK1 (Homo sapiens, UniProt O00506)
T43 construct: purchased Eurofins (KINOMEscan, DiscoverX)

Question: What does the source list for Cc1ccc(-n2cc(COc3cccc4cnc(Nc5cccc(Cl)c5)nc34)nn2)c([N+](=O)[O-])c1 [DB18]?
Answer: remaining binding at 1 µM [1]: 100%; remaining binding at 1 µM [2]: 88%; remaining binding at 1 µM [3]: 91%; remaining binding at 1 µM [4]: 99%; remaining binding at 1 µM [5]: 96%; remaining binding at 1 µM [6]: 93%; remaining binding at 1 µM [7]: 100%; remaining binding at 1 µM [8]: 100%; remaining binding at 1 µM [9]: 100%; remaining binding at 1 µM [10]: 96%; remaining binding at 1 µM [11]: 100%; remaining binding at 1 µM [12]: 83%; remaining binding at 1 µM [13]: 94%; remaining binding at 1 µM [14]: 95%; remaining binding at 1 µM [15]: 100%; remaining binding at 1 µM [16]: 33%; remaining binding at 1 µM [17]: 46%; remaining binding at 1 µM [18]: 99%; remaining binding at 1 µM [19]: 100%; remaining binding at 1 µM [20]: 100%; remaining binding at 1 µM [21]: 100%; remaining binding at 1 µM [22]: 100%; remaining binding at 1 µM [23]: 100%; remaining binding at 1 µM [24]: 94%; remaining binding at 1 µM [25]: 100%; remaining binding at 1 µM [26]: 98%; remaining binding at 1 µM [27]: 61%; remaining binding at 1 µM [28]: 100%; remaining binding at 1 µM [29]: 28%; remaining binding at 1 µM [30]: 100%; remaining binding at 1 µM [31]: 100%; remaining binding at 1 µM [32]: 100%; remaining binding at 1 µM [33]: 100%; remaining binding at 1 µM [34]: 100%; remaining binding at 1 µM [35]: 100%; remaining binding at 1 µM [36]: 100%; remaining binding at 1 µM [37]: 100%; remaining binding at 1 µM [38]: 100%; remaining binding at 1 µM [39]: 8.9%; remaining binding at 1 µM [40]: 100%; remaining binding at 1 µM [41]: 67%; remaining binding at 1 µM [42]: 100%; remaining binding at 1 µM [43]: 98%
